Assay results: PMC11077815, “Synthesis and antitumor activity of dolutegravir derivatives bearing 1,2,3-triazole moieties” (BMC Chemistry, 2024)

Key:
[1] = system: HRM (Human Renal Mesangial) cell line; test: CCK8 cell viability assay, HRM normal cells (toxicity control); type: cell-based; conditions: HRM normal human cells, 48 h, CCK8, mean ± SE
Protocol: Based on these preliminary results, compounds 9c, 9e, 9f, 9i, 9k, 9 L, 9p, 9q, 9t, 9u, 9v, 9w, 10c, 10e which were effective to most of the cell lines were chosen for the measurement of the half-maximal inhibitory concentration (IC50). […] HRM (Human Renal Mesangial) cell line was used as a control to study the toxicity of these compounds against normal human cells.
(§1) CCK8 assay was used to measure cell viability. Cells with a density of 1 × 10^4 cells/well were seeded on the 96-well plates. After adhesion, cells were treated with different diluted compounds or vehicle control DMSO and continue cultured for 48 h. Then, CCK8 reagent was added for one hour incubation at 37 °C with 5% of CO2. Absorbance was measured using a microplate spectrophotometer (Thermo) at 450 nm. The ratio of cell viability of control was taken as 100%. […] Then IC50 of the compounds were investigated using the prism statistical software.

A549 = test: CCK8 cell viability assay, A549; type: cell-based, Human; conditions: for Cell viability (100%): A549, 20 µM, 48 h, CCK8, control = 100%; for IC50: A549, 48 h, CCK8, mean ± SE
Protocol: as §1, with “At first, CCK8 assay was carried out to evaluate the anti-proliferative activity of dolutegravir-1,2,3-triazole derivatives against different cancer cell lines. The results of cell viability of three lung cancer cell lines A549, PC-9 and H460 in the presence of compounds 9 and 10 are summarized in Table 2. Cells were treated with different compounds at the concentration of 20 µM for 48 h. […] Human lung cancer cell lines A549, PC-9 and H460 were all obtained from ATCC. Cells were cultured in DMEM or RPMI 1640 medium containing 10% FBS and 1% penicillin/streptomycin at 37 °C with a 5% CO2-humidified atmosphere. CCK8 assay” for “CCK8 assay”

H460 = test: CCK8 cell viability assay, H460; type: cell-based, Human; conditions: for Cell viability (100%): H460, 20 µM, 48 h, CCK8, control = 100%; for IC50: H460, 48 h, CCK8, mean ± SE
Protocol: as §1, with “At first, CCK8 assay was carried out to evaluate the anti-proliferative activity of dolutegravir-1,2,3-triazole derivatives against different cancer cell lines. The results of cell viability of three lung cancer cell lines A549, PC-9 and H460 in the presence of compounds 9 and 10 are summarized in Table 2. Cells were treated with different compounds at the concentration of 20 µM for 48 h. […] Human lung cancer cell lines A549, PC-9 and H460 were all obtained from ATCC. Cells were cultured in DMEM or RPMI 1640 medium containing 10% FBS and 1% penicillin/streptomycin at 37 °C with a 5% CO2-humidified atmosphere. CCK8 assay” for “CCK8 assay”

PC-9 = test: CCK8 cell viability assay, PC-9; type: cell-based, Human; conditions: for Cell viability (100%): PC9, 20 µM, 48 h, CCK8, control = 100%; for IC50: PC9, 48 h, CCK8, mean ± SE
Protocol: as §1, with “At first, CCK8 assay was carried out to evaluate the anti-proliferative activity of dolutegravir-1,2,3-triazole derivatives against different cancer cell lines. The results of cell viability of three lung cancer cell lines A549, PC-9 and H460 in the presence of compounds 9 and 10 are summarized in Table 2. Cells were treated with different compounds at the concentration of 20 µM for 48 h. […] Human lung cancer cell lines A549, PC-9 and H460 were all obtained from ATCC. Cells were cultured in DMEM or RPMI 1640 medium containing 10% FBS and 1% penicillin/streptomycin at 37 °C with a 5% CO2-humidified atmosphere. CCK8 assay” for “CCK8 assay”

IC50 (A549) [µM]	IC50 (H460) [µM]	IC50 (PC-9) [µM]	Structure (SMILES)	IC50 [1] [µM]	Cell viability (100%) (A549) [%]	Cell viability (100%) (H460) [%]	Cell viability (100%) (PC-9) [%]
33.7 ± 0.68	14.7 ± 2.83	9.94 ± 0.36	COc1c2n(cc(C(=O)Nc3cccc(-c4cn(-c5ccccc5I)nn4)c3)c1=O)C[C@@H]1OCC[C@@H](C)N1C2=O [Compound 9w]	> 50	57.94	30.63	55.21
			COc1c2n(cc(C(=O)Nc3cccc(-c4cn(-c5ccc(C(F)(F)F)cc5)nn4)c3)c1=O)C[C@@H]1OCC[C@@H](C)N1C2=O [Compound 9d]		82.37	69.71	105.15
> 50	37.3 ± 2.25	7.77 ± 0.37	COc1c2n(cc(C(=O)Nc3cccc(-c4cn(-c5ccccc5Br)nn4)c3)c1=O)C[C@@H]1OCC[C@@H](C)N1C2=O [Compound 9u]	> 50	64.09	31.00	43.88
			COc1c2n(cc(C(=O)Nc3cccc(-c4cn(Cc5ccccc5C(F)(F)F)nn4)c3)c1=O)CC1OCCC(C)N1C2=O (stereo not drawn) [Compound 10 h]		77.72	28.10	66.77
			COc1c2n(cc(C(=O)Nc3cccc(-c4cn(Cc5cc(Br)cc(Br)c5)nn4)c3)c1=O)C[C@@H]1OCC[C@@H](C)N1C2=O [Compound 10a]		87.40	82.32	103.57
			COc1cccc(Cn2cc(-c3cccc(NC(=O)c4cn5c(c(OC)c4=O)C(=O)N4[C@H](C)CCO[C@H]4C5)c3)nn2)c1 [Compound 10d]		89.00	77.21	83.17
			CCc1ccc(-n2cc(-c3cccc(NC(=O)c4cn5c(c(OC)c4=O)C(=O)N4[C@H](C)CCO[C@H]4C5)c3)nn2)cc1 [Compound 9 m]		65.08	62.63	63.65
			COc1c2n(cc(C(=O)Nc3cccc(-c4cn(-c5ccc(C)cc5)nn4)c3)c1=O)C[C@@H]1OCC[C@@H](C)N1C2=O [Compound 9y]		85.43	94.78	79.67
20.7 ± 0.23	12.9 ± 0.8	9.87 ± 0.19	CCc1ccccc1-n1cc(-c2cccc(NC(=O)c3cn4c(c(OC)c3=O)C(=O)N3[C@H](C)CCO[C@H]3C4)c2)nn1 [Compound 9k]	> 50	83.48	18.72	23.40
> 50	15.4 ± 1.38	12.1 ± 0.46	COc1c2n(cc(C(=O)Nc3cccc(-c4cn(Cc5ccccc5Br)nn4)c3)c1=O)C[C@@H]1OCC[C@@H](C)N1C2=O [Compound 10c]	> 50	68.05	41.79	50.54
13.6 ± 1.79	16.5 ± 0.57	6.78 ± 0.31	COc1c2n(cc(C(=O)Nc3cccc(-c4cn(-c5cc(C(F)(F)F)ccc5C(F)(F)F)nn4)c3)c1=O)C[C@@H]1OCC[C@@H](C)N1C2=O [Compound 9q]	> 50	54.85	17.63	18.17
			COc1c2n(cc(C(=O)Nc3cccc(-c4cn(Cc5ccccc5F)nn4)c3)c1=O)CC1OCCC(C)N1C2=O (stereo not drawn) [Compound 10f]		82.22	32.43	61.10
9.06 ± 0.88	11.4 ± 0.59	4.03 ± 0.59	COc1c2n(cc(C(=O)Nc3cccc(-c4cn(-c5ccccc5C(F)(F)F)nn4)c3)c1=O)C[C@@H]1OCC[C@@H](C)N1C2=O [Compound 9c]	> 50	9.48	32.97	13.91
			COc1c2n(cc(C(=O)Nc3cccc(-c4cn(-c5ccccc5)nn4)c3)c1=O)C[C@@H]1OCC[C@@H](C)N1C2=O [Compound 9o]		78.59	87.72	94.56
			COc1c2n(cc(C(=O)Nc3cccc(-c4cn(-c5ccccc5C)nn4)c3)c1=O)C[C@@H]1OCC[C@@H](C)N1C2=O [Compound 9s]		82.07	48.37	65.73
			COc1cc([N+](=O)[O-])ccc1-n1cc(-c2cccc(NC(=O)c3cn4c(c(OC)c3=O)C(=O)N3[C@H](C)CCO[C@H]3C4)c2)nn1 [Compound 9b]		92.60	98.64	104.86
			COc1c2n(cc(C(=O)Nc3cccc(-c4cn(-c5cc(C(F)(F)F)cc(C(F)(F)F)c5)nn4)c3)c1=O)C[C@@H]1OCC[C@@H](C)N1C2=O [Compound 9r]		90.73	117.07	98.55
			COc1c2n(cc(C(=O)Nc3cccc(-c4cn(-c5ccc(C(C)(C)C)cc5)nn4)c3)c1=O)C[C@@H]1OCC[C@@H](C)N1C2=O [Compound 9n]		67.60	24.58	59.44
			COc1ccc(-n2cc(-c3cccc(NC(=O)c4cn5c(c(OC)c4=O)C(=O)N4[C@H](C)CCO[C@H]4C5)c3)nn2)cc1OC [Compound 9j]		87.42	92.89	85.93
			COc1c2n(cc(C(=O)Nc3cccc(-c4cn(Cc5ccccc5C)nn4)c3)c1=O)CC1OCCC(C)N1C2=O (stereo not drawn) [Compound 10 g]		71.58	35.98	54.61
			COc1c2n(cc(C(=O)Nc3cccc(-c4cn(-c5c(C)cc(C)cc5C)nn4)c3)c1=O)C[C@@H]1OCC[C@@H](C)N1C2=O [Compound 9z]		91.32	55.57	73.07
			COc1c2n(cc(C(=O)Nc3cccc(-c4cn(Cc5ccccc5)nn4)c3)c1=O)C[C@@H]1OCC[C@@H](C)N1C2=O [Compound 10b]		87.18	55.00	96.85
			CCOc1ccc(-n2cc(-c3cccc(NC(=O)c4cn5c(c(OC)c4=O)C(=O)N4[C@H](C)CCO[C@H]4C5)c3)nn2)cc1 [Compound 9 h]		77.55	52.87	71.96
			COc1ccc(-n2cc(-c3cccc(NC(=O)c4cn5c(c(OC)c4=O)C(=O)N4C(C)CCOC4C5)c3)nn2)cc1 (stereo not drawn) [Compound 9x]		69.21	108.05	78.11
			COc1c2n(cc(C(=O)Nc3cccc(-c4cn(-c5ccc(F)cc5)nn4)c3)c1=O)C[C@@H]1OCC[C@@H](C)N1C2=O [Compound 9 g]		91.65	97.85	88.64
			COc1c2n(cc(C(=O)Nc3cccc(-c4cn(-c5ccccc5F)nn4)c3)c1=O)C[C@@H]1OCC[C@@H](C)N1C2=O [Compound 9a]		95.90	47.20	52.03
